Laboratory results: patent US11260066B2, “Inhibiting reduction of lean body mass and inhibiting accumulation of liver fat by administering allulose” (SAMYANG CORPORATION, priority 2017, dated 2022)

What was measured:
[1] = Blood chemical test (Alkaline phosphatase, AST, ALT, γ-GTP), human application test; type: in vivo; details: for ALT(SGPT), Mean / ALT(SGPT), Median / AST(SGOT), Mean / AST(SGOT), Median / Alkaline phosphatase, Mean / Alkaline phosphatase, Median / γ-GTP, Mean / γ-GTP, Median: ITT 33, time point not given; for ALT, change at 12 weeks compared to the base time / Alkaline phosphatase, change at 12 weeks compared to the base time / γ-GTP, change at 12 weeks compared to the base time: increased in control
Excerpt: After conducting a screening test for those who heard the detailed description of the purpose and research method of the present example and agreed in writing as subjects, those who met the selection/exclusion criteria were selected. The specific selection criteria are as follows, and the final selected subjects are 99 men and women who are overweight or obese, and the demographic information of the selected subjects is shown in the following Table 1. Ninety nine (99) subjects were randomly assigned to the high-dose group, low-dose group or control group, with including 33 subjects in each test group. In three test groups, the products were mixed in 100 ml of water and were administered orally twice a day. As the daily dose for one test subject, 12 g allulose in the high-dose group, 6 g allulose and 6 g anhydrous glucose in the low-dose group, and 12 g anhydrous glucose in the control group were divided and provided twice a day. It was administered from the day after the random assignment day (0 day), and was taken with drinking water twice at morning and evening with meals for 12 weeks. (4) Blood chemical test result The test items performed at screening visit (visit1), visit2 and end visit (visit5) were Alkaline phosphatase, AST, ALT, and γ-GTP. In case of continuous data, for the average change compared to the base time, technical statistics (mean, standard deviation, median value, minimum value, maximum value) were proposed for the average change compared to the base time. The comparative statistic test for the three groups was performed using ANOVA or Kruscal-Wallis test by testing whether data were normally distributed. When there was a significant difference between the three groups, the multiple comparison was conducted through Tukey-Kramer method. In order to find out whether there was a difference in the mean change in a group, it was analyzed using Paired t-test or Wilcoxon's signed rank test. In case of categorical data, technical statistics (frequency, percentage) were proposed, and comparative statistic test was performed between three groups using Chi-square test or Fisher' exact test.

[2] = Body fat and lean body mass measured by DXA, 12-week human application test; type: in vivo; details: for Lean, 12 W, Mean / Fat, Difference (average change at 12 weeks compared to base time) / Lean, Difference (12 W vs baseline): ITT 33; for Fat, 12 W, Mean: ITT 33 overweight/obese adults
Description: After conducting a screening test for those who heard the detailed description of the purpose and research method of the present example and agreed in writing as subjects, those who met the selection/exclusion criteria were selected. The specific selection criteria are as follows, and the final selected subjects are 99 men and women who are overweight or obese, and the demographic information of the selected subjects is shown in the following Table 1. The efficacy test was performed by dividing 99 selected test subjects into 3 groups, and by providing three products to the high-dose group (33 people), low-dose group (33 people), and control group (33 people), respectively. The allulose high-dose product was provided to the high-dose test group, and the allulose low-dose product was provided to the low-dose test group, and placebo product was provided to the control group. Ninety nine (99) subjects were randomly assigned to the high-dose group, low-dose group or control group, with including 33 subjects in each test group. In three test groups, the products were mixed in 100 ml of water and were administered orally twice a day. As the daily dose for one test subject, 12 g allulose in the high-dose group, 6 g allulose and 6 g anhydrous glucose in the low-dose group, and 12 g anhydrous glucose in the control group were divided and provided twice a day. It was administered from the day after the random assignment day (0 day), and was taken with drinking water twice at morning and evening with meals for 12 weeks. At the random assignment day (0 day), the efficacy evaluation items and safety evaluation items such as DXA measurement and the like were checked, and the evaluation items were also checked through hospital outpatient visit at 4 weeks, 8 weeks and 12 weeks from the day of beginning administration of test products. In addition, during the human application test, the usual physical activity of subjects was investigated using Korean version of International Physical Activity Questionnaire (IPAQ). During the human application test period, the subjects were trained to maintain the activity amount being similar to normal physical activity. At each hospital outpatient visit, the amount of meal intake was examined by the recording board made by the subjects. The subjects were trained to maintain the amount of meal intake being similar to the usual amount with avoiding overeating condition. At the time of second hospital visit (visit 2) and final hospital visit (visit 5), the body fat ratio and body fat were measured using prodigy DXA of U.S. Lunar Company. For the body fat measured by DXA, after calculating the change of the body fat after 12 weeks compared to the base time, technical statistics (mean, standard deviation, median value, minimum value, maximum value) were obtained. The comparative statistic test for the three groups was performed using ANOVA or Kruscal-Wallis test by testing whether data were normally distributed. When there was a significant difference between the three groups, the multiple comparison was conducted through Tukey-Kramer method. In order to find out whether there was a difference in the mean change in a group, it was analyzed using Paired t-test or Wilcoxon's signed rank test.

[3] = parameters: species or system human; details: in vivo
[4] = Liver CT: degree of fat deposition in the liver (HU of liver and spleen), human application test; type: in vivo; details: for Liver HU Mean, 12 W, Mean / Liver - Spleen HU (Liver minus Spleen), 12 W, Mean / Spleen HU Mean, 12 W, Mean: 12 weeks; for Liver HU Mean, 12 W, Mean / Liver HU Mean, Difference (12 W vs base line): ITT 33
Excerpt: After conducting a screening test for those who heard the detailed description of the purpose and research method of the present example and agreed in writing as subjects, those who met the selection/exclusion criteria were selected. The specific selection criteria are as follows, and the final selected subjects are 99 men and women who are overweight or obese, and the demographic information of the selected subjects is shown in the following Table 1. Ninety nine (99) subjects were randomly assigned to the high-dose group, low-dose group or control group, with including 33 subjects in each test group. In three test groups, the products were mixed in 100 ml of water and were administered orally twice a day. As the daily dose for one test subject, 12 g allulose in the high-dose group, 6 g allulose and 6 g anhydrous glucose in the low-dose group, and 12 g anhydrous glucose in the control group were divided and provided twice a day. It was administered from the day after the random assignment day (0 day), and was taken with drinking water twice at morning and evening with meals for 12 weeks. In order to evaluate the degree of fat deposition in the liver at the time of hospital visit 2 and visit 5, the HU of liver, HU of spleen, HU difference of liver and spleen (Liver minus Spleen), and HU ratio of liver and spleen (Ratio Between Liver and Spleen) after 12 weeks compared to the base time were measured. CT attenuation values (Hounsfield units) were measured in regions of interest (ROI) selected as a homogeneous place avoiding blood vessels in the right lobe of liver and spleen in one non-contrast-enhanced abdominal CT image including both liver and spleen three times, and the average value was taken as each CT attenuation number. Then, the size of each region of interest was designated equally as 120 mm^2. Through liver CT, for HU of liver, HU of spleen, HU difference of liver and spleen (Liver minus Spleen), and HU ratio of liver and spleen (Ratio Between Liver and Spleen) after 12 weeks, technical statistics (mean, standard deviation, median value, minimum value, maximum value) were proposed for the average change compared to the base time. The comparative statistic test for the three groups was performed using ANOVA or Kruscal-Wallis test by testing whether data were normally distributed. When there was a significant difference between the three groups, the multiple comparisons were conducted through Tukey-Kramer method. In order to find out whether there was a difference in the mean change in a group, it was analyzed using Paired t-test or Wilcoxon's signed rank test.

[5] = parameters: species or system human; details: in vivo; remark: listed apart in the source
Description: Furthermore, the difference of the average change between the three groups at 12 weeks compared to the base time for the items was analyzed in the laboratory test.

[6] = Glucose index test (FBS, Insulin, HbA1c) on collected blood, human application test; type: in vivo; details: for Glucose, 12 W, Mean / Glucose, 12 W, Median / HbA1, 12 W, Mean / HbA1, 12 W, Median / Insulin, 12 W, Mean / Insulin, 12 W, Median / Glucose, Difference (12 W vs baseline) / Insulin, Difference (12 W vs baseline): ITT 33
Excerpt: After conducting a screening test for those who heard the detailed description of the purpose and research method of the present example and agreed in writing as subjects, those who met the selection/exclusion criteria were selected. The specific selection criteria are as follows, and the final selected subjects are 99 men and women who are overweight or obese, and the demographic information of the selected subjects is shown in the following Table 1. Ninety nine (99) subjects were randomly assigned to the high-dose group, low-dose group or control group, with including 33 subjects in each test group. In three test groups, the products were mixed in 100 ml of water and were administered orally twice a day. As the daily dose for one test subject, 12 g allulose in the high-dose group, 6 g allulose and 6 g anhydrous glucose in the low-dose group, and 12 g anhydrous glucose in the control group were divided and provided twice a day. It was administered from the day after the random assignment day (0 day), and was taken with drinking water twice at morning and evening with meals for 12 weeks. At the time of screening hospital visit (visit1), visit2 and final visit (visit5), FBS, Insulin, and HbAlc test was conducted for the collected blood. After calculating the average change of the glucose index (FBS, Insulin, HbAlc) after 12 weeks compared to the base time, technical statistics (mean, standard deviation, median value, minimum value, maximum value) were obtained. The comparative statistic test for the three groups was performed using ANOVA or Kruscal-Wallis test by testing whether data were normally distributed. When there was a significant difference between the three groups, the multiple comparisons were conducted through Tukey-Kramer method. In order to find out whether there was a difference in the mean change in a group, it was analyzed using Paired t-test or Wilcoxon's signed rank test.

[7] = high-dose group: allulose 12 g/d oral
[8] = high-dose group: allulose 12 g/d, statistically significant before/after
[9] = low-dose group: allulose 6 g/d + anhydrous glucose 6 g/d oral
[10] = low-dose group: allulose 6 g/d + glucose 6 g/d, statistically significant before/after
[11] = high-dose group: allulose 12 g/d oral, 12 weeks
[12] = low-dose group: allulose 6 g/d + anhydrous glucose 6 g/d oral, 12 weeks
[13] = high-dose group: allulose 12 g/d oral, N 33
[14] = low-dose group: allulose 6 g/d + anhydrous glucose 6 g/d oral, N 32

O=C(CO)C(O)C(O)C(O)CO (stereo not shown) [allulose]
ALT(SGPT), Mean [1, 7]: 22.21 U/L | ALT(SGPT), Median [1, 7]: 16.00 U/L | AST(SGOT), Mean [1, 7]: 18.76 U/L | AST(SGOT), Median [1, 7]: 18.00 U/L | Alkaline phosphatase, Mean [1, 7]: 183.21 U/L | Alkaline phosphatase, Median [1, 7]: 169.00 U/L | γ-GTP, Mean [1, 7]: 18.18 U/L | γ-GTP, Median [1, 7]: 14.00 U/L | ALT, change at 12 weeks compared to the base time [1, 8]: reduced | Alkaline phosphatase, change at 12 weeks compared to the base time [1, 8]: reduced | γ-GTP, change at 12 weeks compared to the base time [1, 8]: reduced | ALT(SGPT), Mean [1, 9]: 26.88 U/L | ALT(SGPT), Median [1, 9]: 19.00 U/L | AST(SGOT), Mean [1, 9]: 22.64 U/L | AST(SGOT), Median [1, 9]: 18.00 U/L | Alkaline phosphatase, Mean [1, 9]: 178.97 U/L | Alkaline phosphatase, Median [1, 9]: 170.00 U/L | γ-GTP, Mean [1, 9]: 33.58 U/L | γ-GTP, Median [1, 9]: 19.00 U/L | ALT, change at 12 weeks compared to the base time ([1]; low-dose group: allulose 6 g/d + glucose 6 g/d): reduced | Alkaline phosphatase, change at 12 weeks compared to the base time [1, 10]: reduced | γ-GTP, change at 12 weeks compared to the base time [1, 10]: reduced | lean body mass before and after administration ([2]; allulose administration groups, 12 weeks, control reduced by 0.61 kg): did not show a difference before and after administration | body fat before and after administration ([2]; allulose low-dose group and high-dose group, 12 weeks): slightly increased, but there was no statistically significant difference before and after administration | body fat accumulation and muscle mass reduction ([2]; conclusion from analysis of body components, 12 weeks): inhibited | Lean, 12 W, Mean [2, 11]: 40.24 kg | Fat, 12 W, Mean [2, 11]: 26.31 kg | Fat, Difference (average change at 12 weeks compared to base time) [2, 7]: 0.25 ± 1.34 kg | Lean, Difference (12 W vs baseline) [2, 7]: -0.22 ± 1.08 kg | Lean, 12 W, Mean [2, 12]: 42.26 kg | Fat, 12 W, Mean [2, 12]: 26.80 kg | Fat, Difference (average change at 12 weeks compared to base time) [2, 9]: 0.16 ± 0.91 kg | Lean, Difference (12 W vs baseline) [2, 9]: 0.05 ± 0.89 kg | diastolic blood pressure and pulse rate [3]: did not showed statistically significant difference between three groups | Liver HU Mean, 12 W, Mean [4, 7]: 57.49 HU | Liver - Spleen HU (Liver minus Spleen), 12 W, Mean [4, 13]: 7.19 HU | Spleen HU Mean, 12 W, Mean [4, 13]: 50.30 HU | Liver HU Mean, Difference (12 W vs base line) [4, 7]: −0.78 ± 5.60 HU | Liver - Spleen HU, Difference (12 W vs base line) [4, 13]: −1.28 ± 5.36 HU | Spleen HU Mean, Difference (12 W vs base line) [4, 13]: 0.50 ± 2.77 HU | Liver HU Mean, 12 W, Mean [4, 9]: 55.17 HU | Liver - Spleen HU (Liver minus Spleen), 12 W, Mean [4, 14]: 4.75 HU | Spleen HU Mean, 12 W, Mean [4, 14]: 50.66 HU | Liver HU Mean, Difference (12 W vs base line) [4, 9]: −0.69 ± 5.17 HU | Liver - Spleen HU, Difference (12 W vs base line) [4, 14]: −0.55 ± 5.43 HU | Spleen HU Mean, Difference (12 W vs base line) [4, 14]: −0.41 ± 2.34 HU | normality of the urine test [5]: no clinically significant abnormal subject | hypoglycemic effect (Glucose, Insulin, HbA1c) ([6]; high- and low-dose groups, 12 weeks, subjects with normal blood sugar): no hypoglycemic effect | Glucose, 12 W, Mean [6, 11]: 94.58 mg/dL | Glucose, 12 W, Median [6, 11]: 94.00 mg/dL | HbA1, 12 W, Mean [6, 11]: 5.66% | HbA1, 12 W, Median [6, 11]: 5.6% | Insulin, 12 W, Mean [6, 11]: 8.7 µIU/mL | Insulin, 12 W, Median [6, 11]: 7.5 µIU/mL | Glucose, Difference (12 W vs baseline) [6, 7]: -0.12 ± 8.35 mg/dL | Insulin, Difference (12 W vs baseline) [6, 7]: 1.75 ± 5.33 µIU/mL | Glucose, 12 W, Mean [6, 12]: 97.18 mg/dL | Glucose, 12 W, Median [6, 12]: 97.00 mg/dL | HbA1, 12 W, Mean [6, 12]: 5.64% | HbA1, 12 W, Median [6, 12]: 5.6% | Insulin, 12 W, Mean [6, 12]: 9.18 µIU/mL | Insulin, 12 W, Median [6, 12]: 7.1 µIU/mL | Glucose, Difference (12 W vs baseline) [6, 9]: 2.42 ± 10.10 mg/dL | Insulin, Difference (12 W vs baseline) [6, 9]: 1.27 ± 5.15 µIU/mL
